According to US20090220533A1, “Novel T-Helper Antigenic Determinant (THD) Peptides” (priority 2005, published 2009):
No end group written: not given here.

Columns and labels:
[1] = biological target: Class I HLA on the EBV-transformed B cell lines (human); assay: flow cytometry on OLGA cells; inhibition of the binding of biotinylated p45 (10 uM) by the antibody diluted 1/500
[2] = biological target: Class I HLA on the EBV-transformed B cell lines (human); assay: flow cytometry on RSH cells; inhibition of the binding of biotinylated p45 (10 uM) by the antibody diluted 1/500
[3] = biological target: Class I HLA on the EBV-transformed B cell lines (human); assay: flow cytometry on SWEIG cells; inhibition of the binding of biotinylated p45 (10 uM) by the antibody diluted 1/500
[4] = biological target: Class I HLA on the EBV-transformed B cell lines (human); assay: flow cytometry on BOLETH cells; inhibition of the binding of biotinylated p45 (10 uM) by the antibody diluted 1/500
[5] = biological target: Class I HLA on the EBV-transformed B cell lines (human); assay: flow cytometry on HOM2 cells; inhibition of the binding of biotinylated p45 (10 uM) by the antibody diluted 1/500
[6] = biological target: Class I HLA on the EBV-transformed B cell lines (human); assay: flow cytometry on MOU cells; inhibition of the binding of biotinylated p45 (10 uM) by the antibody diluted 1/500
[7] = test system: HLA-DP; assay: Inhibition of biotinylated p45 binding to cell lines by anti-HLA-DP antibody (B7/21); set-up: species or system human; conditions: biotinylated p45 10 μM
Description: (§1) In second place, the HLA-DR4 cell line was incubated in the presence of the biotinylated P45 peptides and antibodies selected due to their specificity to HLA-DR, HLA-DP, HLA-DQ and Class I HLA respectively (FIG. 3).
(§2) In a 96-well plate with U-shaped bottom, the HLA-DR4 cell line was seeded (already defined); (2×10^5 per well), also adding biotinylated P45 peptides (10 μM), alone or together with supernatant of the hybridomas: L243 anti-HLA-DR (ATCC Ref: HB-55), or W6/32 anti-Class I (ATCC Ref: HB-95) or the antibodies 33.1 anti-HLA-DQ or anti-HLA-DP B7/21, which were provided by Dr. Ghislaine Sterkers. All were diluted to (1/500) in a final volume of 100 μl of RPMI with 2.5% FBS.
(§3) % Inhibition=100×((Fp45+aHLA−Fblnk)/(Fp45−Fblnk))
(§4) where Fblnk is the fluorescence measured when the cells were cultured without adding peptide or antibodies (blank), Fp45 is the fluorescence measured when it was incubated with the biotinylated P45 peptides alone, and Fp45+aHLA is the fluorescence measured when it was measured with the biotinylated p45 together with the corresponding HLA antibodies.
(§5) All the assays were performed in triplicate.
(§6) In this way, these tests were repeated on the HLA-DR1, HLA-DR3, HLA-DR7, HLA-DR8, HLA-DR11 cell lines. The inhibition percentages obtained are set down in Table 2.

[8] = test system: HLA-DQ; assay: Inhibition of biotinylated p45 binding to cell lines by anti-HLA-DQ antibody (33.1); set-up: species or system human; conditions: for Percentage of inhibition (%) aDQ: biotinylated p45 10 μM
Description: as §1, §2, §3, §4, §5, §6

[9] = test system: Class I HLA; assay: Inhibition of biotinylated p45 binding to cell lines by anti-Class I antibody (W6/32); set-up: species or system human; conditions: biotinylated p45 10 μM
Description: as §1, §2, §3, §4, §5, §6

[10] = biological target: T1, HLA-DR4 cell line (Homo sapiens, UniProt P01903+P01911, /P40V/Q125Y/R42H/S133A/S149N/S66Y/V115G/V209L/W38E); assay: Direct binding of biotinylated p45 at different concentrations to the HLA-DR4 cell line, fluorescence (FIG. 2); conditions: range of concentrations tested
T1 construct: host or cells: EBV-transformed B lymphocyte line homozygous for HLA-DR4
Description: In first place, tests were performed for binding to HLA-DR in the different cell lines, incubated with biotinylated p45 at different concentrations. To avoid the possible crystallization of the peptide, this was solubilized with the aid of a sonicator. […] As can be verified, the peptide binding is dose-dependent in the range of concentrations tested.

[11] = test system: HLA-DR; assay: Inhibition of biotinylated p45 binding to cell lines by anti-HLA-DR antibody (L243); set-up: species or system human; conditions: for Percentage of inhibition (%) aDR: biotinylated p45 10 μM
Description: as §1, §2, §3, §4, §5, §6

[12] = biological target: T2, HLA-DR8 (DRB1*0802) on OLGA cells (human); assay: flow cytometry on OLGA cells; inhibition by anti-HLA-DR antibody
T2 construct: whole, on cells; On the EBV-transformed B cell line OLGA (ECACC 88052100)

[13] = cell line BOLETH, DR4, DRB1*0401-DQB1*0302
[14] = cell line HOM2, DR1, DRB1*0101-DQB1*0501
[15] = cell line MOU, DR7, DRB1*0701-DQB1*0201
[16] = cell line OLGA, DR8, DRB1*0802-DQB1*0402
[17] = cell line RSH, DR3, DRB1*0302-DQB1*0402
[18] = cell line SWEIG, DR11, DRB1*11011-DQB1*0301

“W6/32 anti-Class I (ATCC Ref: HB-95) (antibody)” showed a Percentage of inhibition (%) [1] of 5%, a Percentage of inhibition (%) [2] of 6% and a Percentage of inhibition (%) [3] of 0%. It also gave a Percentage of inhibition (%) [4] of 1%, a Percentage of inhibition (%) [5] of 13% and a Percentage of inhibition (%) [6] of 0%.

In the case of “biotinylated p45: p45 peptide conjugated with biotin (EZ-Link Sulfo-NHS-LC-Biotin) (FKYRMMMRMRAAA; also: biotin (EZ-Link Sulfo-NHS-LC-Biotin), site not given here)”, the “Percentage of inhibition (%) aDP” value [7, 13] is reported as 7%, the “Percentage of inhibition (%) aDP” value [7, 14] is reported as 23% and the “Percentage of inhibition (%) aDP” value [7, 15] is reported as 13%. The “Percentage of inhibition (%) aDP” value [7, 16] was 4%, the “Percentage of inhibition (%) aDP” value [7, 17] was 28% and the “Percentage of inhibition (%) aDP” value [7, 18] was 0%. For the same molecule, the “Capacity of binding to HLA-DQ” value ([8]; all the cell lines (Table 2)) was “high capacity of binding”, the “Percentage of inhibition (%) aDQ” value [8, 13] was 75% and the “Percentage of inhibition (%) aDQ” value [8, 14] was 75%. The “Percentage of inhibition (%) aDQ” value [8, 15] was 98%, the “Percentage of inhibition (%) aDQ” value [8, 16] was 88% and the “Percentage of inhibition (%) aDQ” value [8, 17] was 98%. For the same molecule, the “Percentage of inhibition (%) aDQ” value [8, 18] was 83%, the “Percentage of inhibition (%) aClI” value [9, 13] was 1% and the “Percentage of inhibition (%) aClI” value [9, 14] was 13%. For the same molecule, the “Percentage of inhibition (%) aClI” value [9, 15] was 0%, the “Percentage of inhibition (%) aClI” value [9, 16] was 5% and the “Percentage of inhibition (%) aClI” value [9, 17] was 6%. For the same molecule, the “Percentage of inhibition (%) aClI” value [9, 18] was 0%, the “Dose dependence of peptide binding (fluorescence)” value [10] was “dose-dependent” and the “Binding of biotinylated peptide to HLA-DR1” value ([11]; HLA-DR1 cell line) was “bound to HLA-DR1”. The “Capacity of binding to HLA-DR” value ([11]; all the cell lines (Table 2)) was “high capacity of binding”, the “Percentage of inhibition (%) aDR” value [11, 13] was 59% and the “Percentage of inhibition (%) aDR” value [11, 14] was 78%. For the same molecule, the “Percentage of inhibition (%) aDR” value [11, 15] was 71%, the “Percentage of inhibition (%) aDR” value [11, 16] was 92% and the “Percentage of inhibition (%) aDR” value [11, 17] was 86%. The “Percentage of inhibition (%) aDR” value [11, 18] was 89%.

B1: biotinylated p45 (peptide)
peptide: FKYRMMMRMRAAA
modifications: also: biotinylated (Sulfo-NHS-LC-Biotin), site not given here
notes: also called biotinylated P45 peptide; biotinylated P45 peptides
B1: binds [12].
